Article PMC9790248, “Effects of CYP3A Inhibition, CYP3A Induction, and Gastric Acid Reduction on the Pharmacokinetics of Ripretinib, a Switch Control KIT Tyrosine Kinase Inhibitor” (Clinical Pharmacology in Drug Development, 2022)
Read-outs that look alike come from different tables or passages of the source.

How the values were obtained:
[1] = Pantoprazole (proton pump inhibitor) DDI study, plasma pharmacokinetics; format: in vivo, human; details: for AUC(0-t) / AUC(0-inf) / Cmax / half-life / Tmax: both sexes, human, plasma; for AUC(0-t) / AUC(0-inf) / Cmax / half-life: po; for AUC(0-t) / AUC(0-inf) / Cmax / half-life / Tmax / CL/F, arithmetic mean (SD) / CL/F, geometric mean (CV%): fasting; for Tmax: read-out: tmax, median (min, max); for Time postdose that mean plasma concentration remained above the LLOQ: LLOQ 2.00 ng/mL
Experimental: All studies were phase 1, fixed‐sequence, open‐label studies in healthy volunteers. One study consisted of two separate cohorts examining DDIs between ripretinib and itraconazole or pantoprazole, respectively; the rifampin study was conducted separately. Studies and cohorts were enrolled independently. Eligible participants were healthy male or female adults between 18 and 55 years of age with a body mass index (BMI) of ≥18.5 and ≤30 kg/m^2. Good health was confirmed by a physician and based on medical evaluation with no significant findings, including medical history, physical examination, laboratory tests, and 12‐lead electrocardiogram (ECG) at screening and day −1. Participants were required to abstain from alcohol, marijuana, grapefruit, Seville oranges, tangelo, star fruit, and grapefruit‐like products 14 days prior to and during the study. Participants with a positive breath test for Helicobacter pylori were excluded from the pantoprazole study.
Participants were confined to the study center on days 1 through 16. On day 1, participants received an oral dose of ripretinib 50 mg under fasting conditions (Figure 1C). On days 8 through 13, participants received pantoprazole 40 mg once daily. On day 14, participants received pantoprazole 40 mg once daily and ripretinib 50 mg simultaneously under fasting conditions.
Ripretinib and its active metabolite DP‐5439 plasma concentrations were measured using a validated high‐performance liquid chromatography (HPLC) with tandem mass spectrometry (LC‐MS/MS) assay with a lower limit of quantification (LLOQ) of 2.00 ng/mL for both analytes. In this method, the analytes (ripretinib and DP‐5439) and the internal standards (ISs; DCC‐2618‐d5 and DP‐5439‐d5) were released from human plasma samples by protein precipitation. The supernatants were chromatographed using reversed‐phase HPLC with a Betasil® C8 analytical column with deionized water (0.1% formic acid) and 40/60 acetonitrile/acetone (0.1% formic acid) as the mobile phase. Mass spectrometric detection was performed on a triple quadrupole tandem mass spectrometer API 5000 or API 5500 (Applied Biosystems/MDS Sciex, Toronto, Canada) equipped with a turbo ion spray source operated in the positive ionization mode. The source parameters were collision energy 40 eV, collision gas 6 psi, Nebulizer Gas 1, Turbo IonSpray Gas 2, and curtain gas 35 psi. Quantification was obtained by using multiple reaction monitoring mode of the transitions of mass to charge ratio [m/z] 510.3 →417 for DCC‐2618 (ripretinib), m/z 496.2 →403 for DP‐5439, m/z 515.3 →417 for DCC‐2618‐d5, and m/z 501.2 →403 for DP‐5439‐d5.
Plasma concentration–time data were analyzed using noncompartmental methods using Phoenix® WinNonlin® v7.0 (Certara USA Inc., Princeton, New Jersey). Derived PK parameters included area under the concentration–time curve from time 0 to time t (AUC0–t) and area under the concentration–time curve from 0 to infinity (AUC0–∞), maximum observed concentration (Cmax), time of maximum observed concentration (tmax), elimination half‐life (t1/2), apparent systemic clearance, and for DP‐5439, metabolite to parent ratio for AUC0–t, AUC0–∞, and Cmax.
The PK population included all participants who received ≥1 dose ripretinib and had ≥1 nonmissing PK concentration in plasma reported for ripretinib or DP‐5439. The PK evaluable set included all participants in the PK population who had ripretinib PK parameters on both ripretinib dosing days, bioanalytical results for ≥75% of planned analyses, no missed ripretinib doses and ≤2 missed perpetrator (itraconazole, pantoprazole, or rifampin) doses before the second dosing day of ripretinib, and no emesis within 8 hours of ripretinib administration. […]

[2] = Safety assessment (TEAEs), rifampin study; format: in vivo, human
Experimental: Participants were confined to the study center from days −1 through 22 for the collection of plasma PK samples and all study procedures. Participants received an oral dose of ripretinib 100 mg on day 1 under fasting conditions; a higher dose of ripretinib was used than in the itraconazole or pantoprazole study due to the potential for decreased ripretinib exposure when coadministered with a strong CYP3A inducer (Figure 1B). On day 8, participants received oral doses of rifampin 600 mg once daily 1 hour before a meal with a full glass of water for 14 consecutive days through day 21. On day 18, participants received a second dose of ripretinib 100 mg administered simultaneously with rifampin 600 mg under fasting conditions. Blood samples for PK analysis were collected at predose and 1, 2, 3, 4, 5, 8, 10, 12, 24, 36, 48, 72, and 96 hours after administration of ripretinib on days 1 and 18. Safety was assessed throughout the study period and with a follow‐up phone call on day 29 or 7 days after discontinuation in the case of early withdrawal.
Relationship to study drug was assessed by the investigator.
Safety data were summarized as n (%).

[3] = ripretinib 50 mg single oral dose + pantoprazole 40 mg QD, healthy participants (N = 23)
[4] = ripretinib 50 mg single oral dose alone, healthy participants (pantoprazole study, N = 23)
[5] = ripretinib 50 mg with pantoprazole 40 mg QD relative to ripretinib alone
[6] = ripretinib 50 mg with pantoprazole 40 mg QD relative to ripretinib alone, listed as ripretinib

`CCn1c(=O)c(-c2cc(NC(=O)Nc3ccccc3)c(F)cc2Br)cc2cnc(NC)cc21` [Ripretinib] showed an AUC(0-t) ([1]; 50 mg, ripretinib 50 mg single oral dose alone, healthy participants (pantoprazole study, N = 23), read-out: AUC0–t, arithmetic mean (SD)) of 3870 ng·h/mL, an AUC(0-t) ([1]; 50 mg, ripretinib 50 mg single oral dose alone, healthy participants (pantoprazole study, N = 23), read-out: AUC0–t, geometric mean (CV%)) of 3610 ng·h/mL and an AUC(0-inf) ([1]; 50 mg, ripretinib 50 mg single oral dose alone, healthy participants (pantoprazole study, N = 23), read-out: AUC0–∞, arithmetic mean (SD)) of 3950 ng·h/mL. It also gave an AUC(0-inf) ([1]; 50 mg, ripretinib 50 mg single oral dose alone, healthy participants (pantoprazole study, N = 23), read-out: AUC0–∞, geometric mean (CV%)) of 3690 ng·h/mL, a Cmax ([1]; 50 mg, ripretinib 50 mg single oral dose alone, healthy participants (pantoprazole study, N = 23), read-out: Cmax, arithmetic mean (SD)) of 301 ng/mL and a Cmax ([1]; 50 mg, ripretinib 50 mg single oral dose alone, healthy participants (pantoprazole study, N = 23), read-out: Cmax, geometric mean (CV%)) of 289 ng/mL. For the same compound, the half-life ([1]; 50 mg, ripretinib 50 mg single oral dose alone, healthy participants (pantoprazole study, N = 23), read-out: t1/2, arithmetic mean (SD) (converted)) was 14 h, the half-life ([1]; 50 mg, ripretinib 50 mg single oral dose alone, healthy participants (pantoprazole study, N = 23), read-out: t1/2, geometric mean (CV%) (converted)) was 13 h and the AUC(0-t) ([1]; ripretinib 50 mg single oral dose + pantoprazole 40 mg QD, healthy participants (N = 23), read-out: AUC0–t, arithmetic mean (SD)) was 4220 ng·h/mL. The AUC(0-t) ([1]; ripretinib 50 mg single oral dose + pantoprazole 40 mg QD, healthy participants (N = 23), read-out: AUC0–t, geometric mean (CV%)) was 3940 ng·h/mL, the AUC(0-inf) ([1]; ripretinib 50 mg single oral dose + pantoprazole 40 mg QD, healthy participants (N = 23), read-out: AUC0–∞, arithmetic mean (SD)) was 4310 ng·h/mL and the AUC(0-inf) ([1]; ripretinib 50 mg single oral dose + pantoprazole 40 mg QD, healthy participants (N = 23), read-out: AUC0–∞, geometric mean (CV%)) was 4030 ng·h/mL. The Cmax ([1]; ripretinib 50 mg single oral dose + pantoprazole 40 mg QD, healthy participants (N = 23), read-out: Cmax, arithmetic mean (SD)) was 319 ng/mL, the Cmax ([1]; ripretinib 50 mg single oral dose + pantoprazole 40 mg QD, healthy participants (N = 23), read-out: Cmax, geometric mean (CV%)) was 298 ng/mL and the half-life ([1]; ripretinib 50 mg single oral dose + pantoprazole 40 mg QD, healthy participants (N = 23), read-out: t1/2, arithmetic mean (SD) (converted)) was 14 h. The half-life ([1]; ripretinib 50 mg single oral dose + pantoprazole 40 mg QD, healthy participants (N = 23), read-out: t1/2, geometric mean (CV%) (converted)) was 14 h, the Tmax [1, 3] was 4 h and the Tmax [1, 4] was 4 h. The “Effect of pantoprazole on exposure / pharmacokinetics” value ([1]; ripretinib 50 mg + pantoprazole 40 mg QD) was “no effect”, the “Time postdose that mean plasma concentration remained above the LLOQ” value ([1]; ripretinib 50 mg alone (pantoprazole study)) was under 96 h and the “CL/F, arithmetic mean (SD)” value [1, 3] was 13 (5) L/h. The “CL/F, geometric mean (CV%)” value [1, 3] was 12 (38) L/h, the “CL/F, arithmetic mean (SD)” value [1, 4] was 14 (5) L/h and the “CL/F, geometric mean (CV%)” value [1, 4] was 14 (38) L/h. The “Geometric LS mean ratio of AUC0–t” value [1, 5] was 109%, the “Geometric LS mean ratio of AUC0–∞ (90% CI)” value [1, 5] was 109 (98–122) % and the “Geometric LS mean ratio of Cmax (90% CI)” value [1, 5] was 103 (91–117) %. For the same compound, the “Geometric LS mean ratio of AUC0–∞ (90% CI)” value [1, 6] was 109%, the “Geometric LS mean ratio of Cmax (90% CI)” value [1, 6] was 103% and the “Time postdose that mean plasma concentration remained above the LLOQ” value ([1]; ripretinib 50 mg with pantoprazole) was under 96 h. The “Number of TEAEs assessed as related to study drug” value ([2]; human, in vivo, 21 days) was 78, the “Participants with TEAEs assessed as related to study drug per the investigator” value ([2]; human, in vivo, 21 days) was 23 (95.8%) n (%) and the “Total number of TEAEs” value ([2]; human, in vivo, 21 days) was 94. The “Deaths and serious AEs” value ([2]; rifampin study, N = 24) was “No deaths or SAEs occurred”.
